“And” between values parts separate entries of the source, which are not always exact repeats. Equal entries are not always repeated.
Assays:
[1] = Particle size distribution (PSD) of Compound 1 before and after manual or jet milling (Sympatec HELOS, dry method); format: physicochemical
Experimental: Compound 1 was milled by manual milling or jet milling to reduce particle size. For manual milling, Compound 1 was weighed into a ceramic motor and gentle milled for ˜5 mins. Particle size distribution (PSD) of Compound 1 indicated D90=77.82 μm and D90=28.27 μm before and after manual milling of Compound 1. PSD via dry method was conducted by Sympatec HELOS particle size analyzer, and dispersing system and pressure were RODOS and 0.5 bar, respectively.
For jet milling, Compound 1 was micronized by jet milling with a yield of ˜90%. Particle size of the jet-milled material was reduced to a D90 range of 4.7 to 13.5 μm.

[2] = Phase 1 single/multiple ascending dose and food effect trial in healthy volunteers: safety and tolerability; format: in vivo, human
Excerpt: This is a three-part clinical trial to evaluate the safety, tolerability, PK, and food effect of Compound 1 in healthy volunteers aged 18 to 55 years inclusive. The clinical trial is comprised of the following 3 parts: • Part A is randomized, double-blinded and placebo-controlled. Part A is designed to investigate the safety and PK of single ascending doses of Compound 1. • Part B is randomized, double-blinded and placebo-controlled. […]
Dosing in each dose level cohort starts with 2 sentinel participants with one of the 2 participants randomized to receive Compound 1 and the other participant randomized to receive placebo. The safety and tolerability of each sentinel participant are monitored until Day 6 and reviewed prior to dosing the remainder of participants in each cohort. […]
(§1) A dose level is evaluated in Part B if determined to be safe and tolerable in Part A. It is anticipated that 3 dose levels are evaluated in Part B in a total of 3 cohorts (Cohorts B1-B3). […]
as §1

CCOC(F)(F)c1nnc2cnc(-c3cnc(OCC(F)(F)F)c(F)c3)cn12 [Compound 1, 3-(ethoxydifluoromethyl)-6-(5-fluoro-6-(2,2,2-trifluoroethoxy)pyridin-3-yl)-[1,2,4]triazolo[4,3-a]pyrazine]
D10 ([1]; after jet milling, batch 1): 0.7 μm | D50 ([1]; after jet milling, batch 1): 1.8 μm | D90 ([1]; after jet milling, batch 1): 4.7 μm | D10 ([1]; after jet milling, batch 2): 1.1 μm | D50 ([1]; after jet milling, batch 2): 3.7 μm | D90 ([1]; after jet milling, batch 2): 8.3 μm | D10 ([1]; after jet milling, batch 3): 0.87 μm | D50 ([1]; after jet milling, batch 3): 5.58 μm | D90 ([1]; after jet milling, batch 3): 13.5 μm | D10 ([1]; after manual milling): 0.8 μm | D50 ([1]; after manual milling): 3.6 μm | D90 ([1]; after manual milling): 28.27 μm and 28.3 μm | D10 ([1]; before milling): 1.8 μm | D50 ([1]; before milling): 22.2 μm | D90 ([1]; before milling): 77.82 μm and 77.8 μm | D10 ([1]; before milling, batch 1): 1.8 μm | D50 ([1]; before milling, batch 1): 15.4 μm | D90 ([1]; before milling, batch 1): 80.9 μm | D10 ([1]; before milling, batch 2): 13.2 μm | D50 ([1]; before milling, batch 2): 67.3 μm | D90 ([1]; before milling, batch 2): 162.1 μm | D10 ([1]; before milling, batch 3): 14.6 μm | D50 ([1]; before milling, batch 3): 56.8 μm | D90 ([1]; before milling, batch 3): 104 μm | tolerability ([2]; Part A single ascending doses, first four of six planned cohorts, preliminary analysis): well tolerated | Serious Adverse Events, severe Adverse Events, or Adverse Events leading to study withdrawal or discontinuation ([2]; Part A, first three cohorts tested): no reported

Source: patent publication US12552797B2, “Process for making (3-[cyclopropylethoxy(difluoro)methyl]-6-6[5-fluoro-6-(2,2,2-trifluoroethoxy-3-pyridyl]- [1,2,4]triazolo[4,3-a]pyrazine” (Praxis Precision Medicines, Inc., priority 2019, dated 2026)
